From patent US8759300B2, “Polypeptides and methods of use” (The Research Foundation for the State University of New York, priority 2007, dated 2014)
“Also recorded” adds a separate entry of the source. No end group written: not given here.

How the values were obtained:
PDGF-BB [1] = target: T1, PDGF-BB (Homo sapiens, UniProt P01127); assay: Equilibrium binding of 125I-PDGF-BB to FN, FN domains and peptides; details: for PDGF-BB binding, in words: equilibrium binding and/or plasmon resonance; for Kd: equilibrium binding
Procedure: (§1) 20 μl of 50% v/v peptide-agarose beads are incubated with 125I-PDGF in 0.1 ml of binding buffer (DMEM+2% BSA) at room temperature for 2 hours with rotation. Beads are washed 6 times with DMEM. Bound PDGF-BB are released by the addition of 100 μl of 1M NaOH. The radioactivity bound to FN-beads are quantified in a γ-counter. Nonspecific binding are established from ^125I-PDGF binding to nonconjugated beads, then specific binding derived by subtraction of nonspecific binding from total binding. Binding constants (KD) and Bmax are determined from nonlinear regression of specific binding curves using Prism 4 from GraphPad Software, San Diego, Calif. “Scatchard plots” are derived from the KD and Bmax obtained with non linear regression analysis.

[2] = tested on: GFs (TGF-β1, PDGF-BB, VEGF, FGF-2); assay: Binding of growth factors to FN domains, GFs reported together
Procedure: as §1
(§2) In the Biacore2000 system, binding constants from kinetic data are determined by passing varying concentrations of FN peptides (analytes) over chip surfaces which are coupled with PDGF-BB (ligand), respectively. All kinetic experiments are carried out at 20° C. at a flow rate of 20 μl/min. For mass transport experiments, each analyte is injected at a fixed concentration and run at flow rates ranging from 5 to 75 μl/min. All analytes are injected over PDGF-BB ligand surfaces as well as over a control surface for 120 s, followed by 300 s of dissociation in running buffer. Regeneration of the sensor chip for subsequent injections is accomplished by pulse of 0.1% SDS. Mass transport experiments have detected little difference in response at different flow rates thus validating data from kinetic experiments. Sensorgrams are prepared and globally fitted using nonlinear least-squares analysis and numerical integration of the differential rate equations with the Biacore Bioevaluation software. Each sensogram generated using a control surface is substracted from the corresponding experimental sensorgrams, and the resulting curves are transformed to concentration units using the molecular mass of the injected species, the equivalence of 1000 resonance units (RU) per 1 ng/mm^2, and a matrix thickness of 100 nm. Each data set, which consists of a series of sensorgrams from injections of different concentration of analyte over the same surface, are analyzed using kinetic models from Biaevaluation software.

PDGF-BB [3] = target: T1, PDGF-BB; assay: Surface plasmon resonance (Biacore), PDGF-BB; assay type: binding; details: plasmon resonance, kinetic binding
Procedure: as §2, with “Each sensogram generated using a control surface is substracted from the corresponding experimental sensorgrams, and the resulting curves are transformed to concentration units using the molecular mass of the injected species, the equivalence of 1000 resonance units (RU) per 1 ng/mm^2, and a matrix thickness of 100 nm.” left out

FN-null cells [4] = assay: FN-null cell survival on surfaces coated with FN domains; assay type: cell-based, mouse; details: for FN-null cell survival / proliferation: FNIII8-11 ± named FN domain, or named FN construct, PDGF-BB added 2 hrs after plating; for FN-null cell survival / proliferation, summary statement: cells plated on named FN construct, or on FNIII8-11 ± named domain; for FN-null cell survival with PDGF at 3 days: surface precoated with 0.15 μM GST-tagged FNIII8-11 ± named FN domain, or named FN construct, PDGF-BB added 1 day after plating
Procedure: To further investigate the response of cells to PDGF-BB bound to FN domains, we investigated the survival response of mouse fibroblasts null for FN (FN−/−), or “FN-null”. First we determined the response of FN-null cells to PDGF-BB in the absence of serum or other sources of exogenous FN. […] Next, FN-null cells were plated on tissue culture plastic surfaces precoated with 0.15 μM GST-tagged FNIII8-11±other FN domains known to have PDGF-BB binding activity and then PDGF-BB added 1 day later. […] Importantly, differential response of FN-null cells, plated on different FN domains, to PDGF-BB was not secondary to differences in attachment as judged by cell counts two hours after plating. The FNIII8-11 central cell binding domain was present in all circumstances.

TGF-β1 = TGF-β1 (Homo sapiens, UniProt P01137); assay: Equilibrium binding of TGF-β1 to FN, FN domains and peptides; details: for TGF-β1 binding, in words: equilibrium and/or kinetic binding
Procedure: [The source words this procedure for another target and reports this target under the same test.] as §1

bFGF (FGF-2) = bFGF (FGF-2) (Homo sapiens, UniProt P09038); assay: Equilibrium binding of bFGF (FGF-2) to FN and FN domains
Procedure: [The source words this procedure for another target and reports this target under the same test.] as §1

VEGF = target: T2, VEGF (Homo sapiens, UniProt P15692); assay: Surface plasmon resonance, VEGF; assay type: binding
T2 sequence (P15692 27-191 isoform P15692-4): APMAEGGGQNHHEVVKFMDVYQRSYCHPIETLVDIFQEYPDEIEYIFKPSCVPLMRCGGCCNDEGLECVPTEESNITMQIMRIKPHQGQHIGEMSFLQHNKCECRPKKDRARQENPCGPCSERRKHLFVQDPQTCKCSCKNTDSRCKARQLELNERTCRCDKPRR

FN-null cells [5] = assay: FN-null cell assay, peptides added directly to medium on FNIII8-11; assay type: cell-based, mouse
Procedure: FIG. 6. FN-null fibroblast response to soluble, unconjugated P5 (SEQ ID NO:37). FN-null cells were cultured at 4,000 cells/well in 96 well plates precoated with 0.125 mM of FNIII8-11 in DMEM for 4 hrs, and then further incubated in DMEM+2% BSA with or without the indicated concentrations of Peptide 5 at 37° C. for 3 days. Cells were counted in three 10× fields in each of 4 wells (mean±SD, n−12).
Scrambled variants of peptides 1 and 5 had no activity in these assays.
Variants of peptide 5 derived from fibronectin were generated by removing one amino acid at a time from the N-terminus or C-terminus of Peptide 5 (Table 2). These peptides (P12-P24) were added directly to medium with or without PDGF-BB.

[6] = target: T3, PDGF-BB binding to FNIII1, FNIII12-14 and IIICS (Homo sapiens, UniProt P01127); assay: Inhibition by peptides of PDGF-BB binding to FN domains; details: all three FN domains
T3 construct: made in house; host or cells: E. coli BL21DE3LysS (FN domains only)
Excerpt: To further localize PDGF-BB binding within FNIIII, we acquired a peptide from the central 76 amino acids (aa) of FNIII1 (FN630-704) (FIG. 4), which has anti-angiogenic properties and promotes FN polymerization. […] Next, we looked for sequence homologies within the two halves of the peptide and discovered the sequence pattern noted above ([QN]-X(1,2)-[ST]-X(0,1)-[IG]-[QS]-[KRQ]-[YTM]-[IG]-X(4,5)-X(0,1)-[KR]-X(1,2)-X(1,2)-[RT]-X(1,2)-[KQTS]-X(2)-T) (SEQ ID NO:30) (see peptides 1-4). […] These findings may explain similar PDGF-BB binding among FN heparin-binding domains, FNIII12-V15, FNIII12-15, FNIII12-14, FNIII12-13, and IIICS. […] Next, we determined if PDGF-BB-binding peptides from FNIII1 could inhibit PDGF-BB binding to FNIII1, FNIII12-14 and IIICS. For initial experiments we selected peptide 1 and peptide 2. For control, we used scrambled peptide 1.

EGF = EGF (Homo sapiens, UniProt P01133); assay: Binding of EGF to FN, FN domains and peptides
TGF-α = TGF-α (Homo sapiens, UniProt P01135); assay: Binding of TGF-α to FN, FN domains and peptides
FGF-1 = FGF-1 (Homo sapiens, UniProt P05230); assay: Binding of FGF-1 to FN, FN domains and peptides
Sequence of FGF-1 (P05230 whole entry, species assumed, the tested form may be a part): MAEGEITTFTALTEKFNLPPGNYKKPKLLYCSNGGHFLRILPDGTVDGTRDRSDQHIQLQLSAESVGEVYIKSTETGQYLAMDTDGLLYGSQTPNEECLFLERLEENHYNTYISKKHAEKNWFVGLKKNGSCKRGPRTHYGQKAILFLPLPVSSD

Sequence of TGF-β1 (P01137 279-390 limits assumed): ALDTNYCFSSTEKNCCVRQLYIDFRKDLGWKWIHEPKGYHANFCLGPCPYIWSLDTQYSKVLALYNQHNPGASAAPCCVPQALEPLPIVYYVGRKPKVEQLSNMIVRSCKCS
T1 sequence (P01127 82-190 limits assumed): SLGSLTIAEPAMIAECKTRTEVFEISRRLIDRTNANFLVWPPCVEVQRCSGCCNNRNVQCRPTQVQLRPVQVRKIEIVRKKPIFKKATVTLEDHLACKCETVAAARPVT
Sequence of bFGF (FGF-2) (P09038 143-288): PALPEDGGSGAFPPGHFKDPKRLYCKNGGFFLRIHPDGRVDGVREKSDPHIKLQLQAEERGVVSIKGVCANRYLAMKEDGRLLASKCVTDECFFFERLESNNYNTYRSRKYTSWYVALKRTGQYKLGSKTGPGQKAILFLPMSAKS
Sequence of TGF-α (P01135 40-89, species assumed): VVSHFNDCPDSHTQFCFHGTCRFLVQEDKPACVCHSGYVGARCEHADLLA
Sequence of EGF (P01133 971-1023 limits assumed, species assumed): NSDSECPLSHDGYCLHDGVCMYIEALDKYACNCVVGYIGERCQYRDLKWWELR
T3 sequence (P01127 82-190 limits assumed): as the sequence (P01127 82-190 limits assumed) above

## FN70: 70 kDa amino terminus of FN, which includes fibrin and gelatin binding domains
PDGF-BB [1]
  PDGF-BB binding, in words: did not
[2]
  Binding of the GFs tested, in words: None of the GFs detectably bound; also recorded: In no case did any GF bind

## FN630-667: half of the 76 aa FNIII1 peptide FN630-704
PDGF-BB [1]
  PDGF-BB binding, in words: demonstrated PDGF-BB binding

## FN668-704: half of the 76 aa FNIII1 peptide FN630-704
PDGF-BB [1]
  PDGF-BB binding, in words: demonstrated PDGF-BB binding

## FNIII1-2: recombinant FN domain, first and second type III repeat
PDGF-BB [1]
  Kd: 37 nM
PDGF-BB [3]
  Kd: 9.1 nM
FN-null cells [4]
  FN-null cell survival / proliferation: enhance survival
[2]
  Binding of the GFs tested, in words: all four GFs bound

## FNIII1-11: recombinant FN domain; FNIII1 PDGF-binding domain contiguous with FNIII8-11 cell-binding domain
PDGF-BB [1]
  PDGF-BB binding, in words: bound
TGF-β1
  TGF-β1 binding, in words: bound
bFGF (FGF-2); equilibrium and/or kinetic binding
  bFGF (FGF-2) binding, in words: did not
VEGF
  VEGF binding, in words: did not
FN-null cells [4]
  FN-null cell survival in the absence of PDGF-BB: survived
  FN-null cell survival / proliferation: robust proliferation
  FN-null cell survival / proliferation, summary statement: survived in the absence of PDGF-BB and proliferated in its presence
  FN-null cell survival with PDGF at 3 days: best survival response

## FNIII1: recombinant FN domain, first type III repeat
PDGF-BB [1]
  Kd: 32 nM
PDGF-BB [3]
  Kd: 370 nM
TGF-β1; method not restated (equilibrium and kinetic binding performed)
  Kd: 6.2 nM
FN-null cells [4]
  FN-null cell survival with PDGF at 3 days: increased survival
[2]
  Binding of the GFs tested, in words: all four GFs bound

## FNIII2: recombinant FN domain, second type III repeat
[2]
  Binding of the GFs tested, in words: all four GFs bound

## FNIII8-11: classic cell-binding domain of FN containing RGD
PDGF-BB [1]
  PDGF-BB binding, in words: did not
FN-null cells [4]
  FN-null cell survival / proliferation, summary statement: failed to survive even in the presence of PDGF-BB; also recorded: did not support cell survival
  FN-null cell survival with PDGF at 3 days: failed to survive
[2]
  Binding of the GFs tested, in words: None of the GFs detectably bound; also recorded: In no case did any GF bind

## FNIII8-V15: FN functional domain containing FNIII8-11 plus a GF-binding domain
FN-null cells [4]
  FN-null cell survival / proliferation: robust proliferation
  FN-null cell survival / proliferation, summary statement: survived in the absence of PDGF-BB and proliferated in its presence

## PSHISKYILRWRPK [P12]
FN-null cells [5]; peptide added directly to media with or without PDGF-BB
  FN null cell survival and proliferation: smallest peptide capable of supporting FN-null cell survival or proliferation

## PSLAKKQRFRHRNR
FN-null cells [5]; in the presence of PDGF-BB
  FN null cell survival and proliferation: supported FN null cell survival and proliferation

## QLISIQQYGHQEVTRFDFTTTSTST [peptide 2]
[6]
  Inhibition of PDGF-BB binding to FNIII1, FNIII12-14 and IIICS: neither peptide 2, nor the scramble variant of peptide 1 (FN634-658s), demonstrated inhibition

## QPSHISKY
TGF-β1
  TGF-β1 binding, in words: minimal binding activity

## QPSVGQQMIFEEHGFRRTTPPTTAT [peptide 4]
TGF-β1; equilibrium binding
  Kd: 100 nM

## anastellin: 76-aa peptide within FNIII1; anti-angiogenic, promotes FN polymerization [reference compound]
PDGF-BB [1]
  PDGF-BB binding, in words: demonstrated PDGF-BB binding
[2]
  Binding of the GFs tested, in words: all but VEGF bound

## intact FN: intact human plasma fibronectin (SEQ ID NO:1)
PDGF-BB [1]
  Kd: 49 nM
TGF-β1; equilibrium binding
  Kd: 53 nM
bFGF (FGF-2); equilibrium binding, intact FN, read-out: KD, FGF-2 (bFGF) binding
  Kd: 44 nM
EGF
  EGF binding, in words: did not
TGF-α
  TGF-α binding, in words: did not
FGF-1
  FGF-1 binding, in words: did not
FN-null cells [4]
  FN-null cell survival / proliferation: robust proliferation
  FN-null cell survival / proliferation, summary statement: survived in the absence of PDGF-BB and proliferated in its presence
